Data taken from the NIST ThermoML archive (doi:10.1016/j.jct.2009.03.009).

Legend:
[1] = xn = mol fraction of the nth substance listed; conditions: 313.15 K, 101 kPa, Liquid; for speed of sound: Sing-around technique in a fixed-path interferometer; for mass density: Vibrating tube method
[2] = refractive index (Na D-line) (dimensionless); xn = mol fraction of the nth substance listed; conditions: 313.15 K, 101 kPa, Liquid, Standard Abbe refractometry

c1ccccc1 [benzene] + CCCCCC
Conditions | mass density, [1] [kg/m3] | refractive index, [2] | speed of sound, [1] [m/s]
x2 = 0 | 857.4 | 1.48752 | 1230
x2 = 0.0378 | 845.3 | 1.48075 | 1214.8
x2 = 0.1009 | 825.8 | 1.46941 | 1191.1
x2 = 0.1986 | 797.9 | 1.45313 | 1158.5
x2 = 0.2979 | 772.2 | 1.43818 | 1129.8
x2 = 0.402 | 747.7 | 1.42416 | 1104.3
x2 = 0.6024 | 706.3 | 1.40043 | 1063.9
x2 = 0.7014 | 688.2 | 1.39011 | 1047.7
x2 = 0.801 | 671.4 | 1.38019 | 1033.2
x2 = 0.9083 | 654.9 | 1.37148 | 1020.2
x2 = 0.9464 | 649.2 | 1.36837 | 1015.9

c1ccccc1 [benzene] + CCCCCCC
Conditions | mass density, [1] [kg/m3] | refractive index, [2] | speed of sound, [1] [m/s]
x2 = 0 | 857.4 | 1.48752 | 1230
x2 = 0.0511 | 840.8 | 1.47784 | 1210.9
x2 = 0.1025 | 825.2 | 1.46808 | 1193.3
x2 = 0.1998 | 798.6 | 1.45273 | 1165.5
x2 = 0.2987 | 775 | 1.43808 | 1142.8
x2 = 0.3972 | 754.3 | 1.42586 | 1124.4
x2 = 0.5013 | 734.9 | 1.4148 | 1108.9
x2 = 0.5998 | 718.5 | 1.40552 | 1096.8
x2 = 0.698 | 703.7 | 1.39777 | 1086.4
x2 = 0.8043 | 689.4 | 1.38985 | 1077.8
x2 = 0.9013 | 677.7 | 1.38322 | 1071.6
x2 = 0.9518 | 671.9 | 1.38025 | 1068.8

c1ccccc1 [benzene] + CCCCCCCC
x2 = 0
Conditions | mass density [kg/m3] | refractive index | speed of sound [m/s]
[1] | 857.4 | – | 1230
[2] | – | 1.48752 | –

c1ccccc1 [benzene] + CCCCCCCCC
x2 = 0
Conditions | mass density [kg/m3] | refractive index | speed of sound [m/s]
[1] | 857.4 | – | 1230
[2] | – | 1.48752 | –

CCc1ccccc1 [ethylbenzene] + CCCCCC
Conditions | mass density, [1] [kg/m3] | refractive index, [2] | speed of sound, [1] [m/s]
x2 = 0 | 849.2 | 1.48426 | 1256.9
x2 = 0.0465 | 839.4 | 1.47929 | 1243.8
x2 = 0.0771 | 832.8 | 1.47548 | 1235
x2 = 0.201 | 806.5 | 1.46016 | 1200.8
x2 = 0.3015 | 785.2 | 1.44756 | 1173.9
x2 = 0.399 | 764.7 | 1.43582 | 1148.5
x2 = 0.5092 | 741.7 | 1.42251 | 1121.1
x2 = 0.601 | 722.6 | 1.41135 | 1098.9
x2 = 0.7012 | 702 | 1.39924 | 1075.7
x2 = 0.7999 | 681.9 | 1.38766 | 1054.1
x2 = 0.8993 | 661.7 | 1.3759 | 1031.8
x2 = 0.9534 | 650.8 | 1.36962 | 1020.3

CCc1ccccc1 [ethylbenzene] + CCCCCCC
Conditions | mass density, [1] [kg/m3] | refractive index, [2] | speed of sound, [1] [m/s]
x2 = 0 | 849.2 | 1.48426 | 1256.9
x2 = 0.0494 | 838.5 | 1.47846 | 1243.9
x2 = 0.1039 | 826.9 | 1.47131 | 1229.8
x2 = 0.2025 | 806.7 | 1.4594 | 1205.9
x2 = 0.3022 | 786.8 | 1.44788 | 1183.7
x2 = 0.4038 | 767.2 | 1.43628 | 1162.6
x2 = 0.5006 | 749.3 | 1.42574 | 1144.6
x2 = 0.6003 | 731.6 | 1.41536 | 1126.9
x2 = 0.7014 | 714.3 | 1.40513 | 1109.8
x2 = 0.8048 | 697.3 | 1.39516 | 1094.8
x2 = 0.9028 | 681.7 | 1.38607 | 1079.9

CCc1ccccc1 [ethylbenzene] + CCCCCCCC
Conditions | mass density, [1] [kg/m3] | refractive index, [2] | speed of sound, [1] [m/s]
x2 = 0 | 849.2 | 1.48426 | 1256.9
x2 = 0.0536 | 837.6 | 1.47786 | 1244.1
x2 = 0.1028 | 827.4 | 1.47159 | 1232.9
x2 = 0.2037 | 807.4 | 1.45954 | 1212.1
x2 = 0.3032 | 788.7 | 1.4483 | 1193.8
x2 = 0.4015 | 771.4 | 1.43795 | 1177.7
x2 = 0.5013 | 755 | 1.42817 | 1163.3
x2 = 0.6039 | 739.2 | 1.41883 | 1150.1
x2 = 0.701 | 725.1 | 1.41043 | 1138.8
x2 = 0.7996 | 711.6 | 1.40254 | 1128.3
x2 = 0.9012 | 698.6 | 1.39489 | 1119.3
x2 = 0.9515 | 692.3 | 1.39112 | 1115

CCc1ccccc1 [ethylbenzene] + CCCCCCCCC
x2 = 0
Conditions | mass density [kg/m3] | refractive index | speed of sound [m/s]
[1] | 849.2 | – | 1256.9
[2] | – | 1.48426 | –

CCCCCCC [heptane] + CCc1ccccc1
x1 = 1
Conditions | mass density [kg/m3] | refractive index | speed of sound [m/s]
[1] | 666.6 | – | 1066.5
[2] | – | 1.37737 | –

CCCCCCC [heptane] + Cc1ccccc1
x1 = 1
Conditions | mass density [kg/m3] | refractive index | speed of sound [m/s]
[1] | 666.6 | – | 1066.5
[2] | – | 1.37737 | –

CCCCCCC [heptane] + c1ccccc1
x1 = 1
Conditions | mass density [kg/m3] | refractive index | speed of sound [m/s]
[1] | 666.6 | – | 1066.5
[2] | – | 1.37737 | –

CCCCCC [hexane] + CCc1ccccc1
x1 = 1
Conditions | mass density [kg/m3] | refractive index | speed of sound [m/s]
[1] | 641.4 | – | 1010.3
[2] | – | 1.36411 | –
